Experimental data taken from publication PMC3832036, “The crystal structures of the tri-functional Chloroflexus aurantiacus and bi-functional Rhodobacter sphaeroides malyl-CoA lyases and comparison with CitE-like superfamily enzymes and malate synthases” (BMC Structural Biology, 2013).

Legend:
MCLR [1] = target: T1, MCLR (Cereibacter sphaeroides, UniProt Q3J5L6); details: 0.5 mM acetyl-CoA, 100 mM pyruvate, 5 mM MgCl2, MOPS/KOH pH 7.5
T1 construct: gene mcl1

MCLR [2] = target: T1, MCLR; details: glyoxylate and Mg2+ present; pH 8.5; one of the closed active sites
MCLR [3] = target: T1, MCLR; details: Mg2+; pH 8.5; two closed active sites; not intentionally added, modelled from density
[4] = target: the molecule itself; experiment: SEC; Superdex 200 10/30 GL, 20 mM Tris/HCl pH 7.5, 2 mM MgCl2, 100 mM NaCl, 4°C; molecular weight against protein standards

Question: For `CC(=O)C(=O)O` [PYR, pyruvate], which “reversed phase HPLC of citramalyl-CoA formation” value (MCLR [1]) is on record?
Answer: The value was “formation of citramalyl-CoA was confirmed by reversed phase HPLC analysis”.

Question: Which “X-ray crystal structure, crystal soaking, 2.1 A” value (MCLR [2]) does the source give for `CCC(=O)SCCNC(=O)CCNC(=O)[C@H](O)C(C)(C)COP(=O)(O)OP(=O)(O)OC[C@H]1O[C@@H](n2cnc3c(N)ncnc32)[C@H](O)[C@@H]1OP(=O)(O)O` [PCO, propionyl-CoA] here?
Answer: The value was “one of these closed active sites was also occupied by propionyl-CoA”.

Question: How did the “X-ray crystal structure, glyoxylate carried over from E. coli, 2.1 A” value (MCLR [3]) turn out when `O=CC(=O)O` [GLX, glyoxylate] was run?
Answer: Its value is “active sites contained electron density that allowed modeling of glyoxylate molecules together with magnesium ions”.

B1: malyl-CoA lyase of Rhodobacter sphaeroides (enzyme, Rhodobacter sphaeroides 2.4.1)
chain: MSFRLQPAPPARPNRCQLFGPGSRPALFEKMAASAADVINLDLEDSVAPDDKAQARANIIEAINGLDWGRKYLSVRINGLDTPFWYRDVVDLLEQAGDRLDQIMIPKVGCAADVYAVDALVTAIERAKGRTKPLSFEVIIESAAGIAHVEEIAASSPRLQAMSLGAADFAASMGMQTTGIGGTQENYYMLHDGQKHWSDPWHWAQAAIVAACRTHGILPVDGPFGDFSDDEGFRAQARRSATLGMVGKWAIHPKQVALANEVFTPSETAVTEAREILAAMDAAKARGEGATVYKGRLVDIASIKQAEVIVRQAEMISA
notes: Malyl-CoA lyase of Rhodobacter sphaeroides 2.4.1, GenBank ACJ71673; model 4L9Z holds Ser2 or Phe3 through Met315 with only the C-terminal three residues missing (lid domain residues 264-318); 36.8 kDa per monomer; Hexamer (dimer of trimers); The His10 tag had no electron density in the crystals; also called MCLR; MCL; source: E. coli BL21(DE3), purified (Ni-Sepharose, gel filtration); not shown: …
Question: For B1, which “stoichiometry N” value [4] is on record?
Answer: Its value is 6.

B2: malyl-CoA lyase of Chloroflexus aurantiacus (enzyme, Chloroflexus aurantiacus OK-70-fl, UniProt S5N020 1-348, looked up)
chain: MRKLAHNFYKPLAIGAPEPIRELPVRPERVVHFFPPHVEKIRARIPEVAKQVDVLCGNLEDAIPMDAKEAARNGFIEVVKATDFGDTALWVRVNALNSPWVLDDIAEIVAAVGNKLDVIMIPKVEGPWDIHFVDQYLALLEARHQIKKPILIHALLETAQGMVNLEEIAGASPRMHGFSLGPADLAASRGMKTTRVGGGHPFYGVLADPQEGQAERPFYQQDLWHYTIARMVDVAVAHGLRAFYGPFGDIKDEAACEAQFRNAFLLGCTGAWSLAPNQIPIAKRVFSPDVNEVLFAKRILEAMPDGSGVAMIDGKMQDDATWKQAKVIVDLARMIAKKDPDLAQAYGL
notes: Malyl-CoA lyase of Chloroflexus aurantiacus OK-70-fl, GenBank AGR55786; gene amplified from chromosomal DNA with primers upstream (NdeI at the start codon) and downstream of the gene, cloned into pT7-7; 348 residues (models run from Arg2 to Leu348, the native C-terminus); calculated 38.4 kDa per monomer; Hexamer (dimer of trimers); No tag is named for this construct; also called MCLC; MCL; …
Question: How did the “stoichiometry N” value [4] turn out when B2 was run?
Answer: Its value is 6.
